# Data as given in the METLIN SMRT retention time set (Domingo-Almenara et al. 2019).
# Test: gradient 5% acetonitrile 3 min, to 50% in 2 min, to 85% in 15 min, held 3 min, 100 µL/min
# Settings: column: Zorbax Extend-C18 2.1 x 50 mm; eluents: water / acetonitrile, 0.1% formic acid
# How it was run: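 Over 3 months, pure standards in mixtures of ~100 molecules were run by HPLC coupled to a quadrupole time-of-flight mass spectrometer in positive and negative ionization mode. The column was a Zorbax Extend-C18 (2.1 × 50 mm, 1.8 μm) at 100 μL/min, eluted with water and acetonitrile each holding 0.1% formic acid, with 40 μL dead and 900 μL dwell volumes. Retention time was determined from adduct peaks chosen by software and checked manually.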
row,SMILES,RP-LC retention time
1,Cc1ncoc1C(=O)N1CCOc2ccc(N(C)C)cc2C1,572 s
2,Cc1cc(C)cc(NC(=O)Cc2nnc(-c3cnccn3)o2)c1,729 s
3,Cc1cc2c(=O)n(CC(=O)Nc3ccc(C(F)(F)F)cc3)ccc2s1,706 s
4,O=C(NCC1CCCO1)c1cccc(Nc2c(-c3ccc(Cl)cc3)nc3cnccn23)c1 (centres undefined),753 s
5,Cc1cc(N2CCC(NC(=O)Nc3cccc(F)c3C)C2=O)ccc1F (centres undefined),904 s
6,Cc1ccc(S(=O)(=O)Nc2ccc3c(c2)CCC(=O)N3CC(C)C)cc1C,939 s
7,CSc1ccccc1NC(=O)Cc1cc(-c2ccc(F)cc2)on1,919 s
8,O=C(CN1CCN(c2ccccn2)CC1)Nc1ccc(F)c(F)c1,576 s
9,CCc1cccc(NC(=O)N2CCc3c(c(COc4ccccc4)nn3C)C2)c1,934 s
10,O=C(NCCc1cccs1)c1c(O)c2cccnc2n(-c2cccc(F)c2)c1=O,1180 s
11,Oc1ccc2c3c1O[C@H]1[C@@H](O)CC[C@@]4(O)C(C2)N(CC2CCC2)CCC314 (some centres undefined),635 s
12,O=C(CN1CC=C(c2cnn(-c3ccccc3)c2)CC1)Nc1ccccc1Cl,690 s
13,COc1ccc(-n2nc(C)c3sc(N4CCCC(C(=O)NC5CCCC5)C4)nc32)cc1 (centres undefined),1040 s
14,CCc1cc(C(=O)Nc2ccc(C)cc2C)nc2ccnn12,1090 s
15,CC(C)c1c(C(=O)O)nnn1Cc1ccc(Cl)cc1,788 s
16,Cn1c(=O)c(N2CCC(C(=O)NCCc3ccco3)CC2)nc2cccnc21,811 s
17,Cc1noc(C)c1C1CCCN1C(=O)c1cccc(C#N)c1 (centres undefined),767 s
18,O=C(NCCN1CCOCC1)c1ccc(-c2ccc(N3CCSCC3)nc2)cc1,568 s
19,Cc1ccc(S(=O)(=O)N2CCn3c(nn(CC4CC4)c3=O)C2)c(C)c1,809 s
20,CC(C)S(=O)(=O)c1cccc(-c2nnc(N)o2)c1,589 s
21,Cc1sc2ccn(Cc3ccc(F)cc3)c(=O)c2c1C(=O)NCCN1CCN(C)CC1,591 s

row,SMILES,RP-LC retention time
1,COc1ccccc1Nc1nc(-c2ccccc2)cs1,1150 s
2,Cn1cc(-c2cc3n(n2)CCC(=O)N3CC(=O)NCc2ccccc2)c2ccccc21,798 s
3,CCc1cccc(NC(=O)N2CCCC2c2nncn2C2CCCC2)c1 (centres undefined),742 s
4,CN1C(=O)c2cc(C(=O)N3CCOCC3)nn2CC1(C)C(=O)NCc1ccccc1 (centres undefined),632 s
5,Cc1c(C(=O)N2CCN(c3ccccn3)CC2)sc2nc3n(c(=O)c12)CCC3,571 s
6,CCc1nccn1Cc1nc(-c2ccc(C(F)(F)F)cc2)no1,700 s
7,COC(=O)c1cccc(NS(=O)(=O)c2cc3n(c2)CCCNC3=O)c1,641 s
8,CC1CCN(C(=O)C2CCN(c3nc4ccc(-c5ccccc5)nc4s3)CC2)CC1,1140 s
9,COc1ccc(C(=O)Nc2cnn(C)c(=O)c2N2CCOCC2)cc1Cl,784 s
10,CC(C)c1ccc(NC(=O)C2CCN(S(=O)(=O)c3cc(C(=O)N(C)C)cs3)CC2)cc1,958 s
11,CCc1nc(-c2cc(S(=O)(=O)N3CCC(C(=O)NCc4ccco4)CC3)c(C)s2)no1,932 s
12,O=C(CCn1cnc2cc(-c3noc(-c4ccc(Cl)cc4)n3)ccc21)N1CCOCC1,754 s
13,CSc1ccc(CCNC(=O)CCC(=O)N2CCCn3nc(C)cc32)cc1,703 s
14,Cc1sc(-c2noc(C3CCC3)n2)cc1S(=O)(=O)N1CCC(C(=O)NCc2ccco2)CC1,1010 s
15,O=C(Cn1cc(-c2ccccc2)c2ncnc(N3CCOCC3)c21)N1CCN(c2ccccc2)CC1,717 s
16,CC(C)(C)OC(=O)COC(=O)c1cn(-c2cccc(F)c2)c(=O)c2ccccc12,1160 s
17,CC(C)c1ccc(Nc2c(-c3ccc(Cl)cc3)nc3cnccn23)cc1,1190 s
18,Cc1cccc2nnc(N3CCN(C(=O)c4cccc(Br)c4)CC3)n12,683 s
19,COc1ncc(C(=O)NCc2cc(F)cc(F)c2)cn1,718 s
20,COc1nn(C)cc1C(=O)N1CCC(C(=O)Nc2ccc(-n3cnnn3)cc2)CC1,600 s
21,Cc1cccc(NC(=O)Cn2cnc3nc(N4CCC(C(=O)NC5CC5)CC4)sc3c2=O)c1,658 s

row,SMILES,RP-LC retention time
1,COc1ccc(C(=O)/C(Br)=C/C(=O)O)cc1,744 s
2,O=C1CN(Cc2ccco2)C2CS(=O)(=O)CC2N1c1ccc(Cl)cc1 (centres undefined),714 s
3,Cc1ccc(CN2N=C(C(=O)N3CCC(C)CC3)S(=O)(=O)c3ccccc32)cc1,1060 s
4,CCCCC(=O)Nc1nc(-c2ccc3c(c2)N(CCC)C(=O)CO3)cs1,1010 s
5,Clc1ccc(-c2nc(N3CCC4(CC3)OCCO4)c3ccccc3n2)cc1,822 s
6,CCCCC(=O)N(C)CC1CCOCC1,686 s
7,Cc1ccc(S(=O)(=O)c2cnc(N3CCN(c4ccccn4)CC3)nc2N)cc1C,677 s
8,COCC(=O)Nc1ccccc1NC(=O)c1ccsc1,648 s
9,COc1ccc(N2CCN(CCNC(=O)c3cccs3)CC2)cc1,557 s
10,CN(CC(=O)N1CCN(c2cccc(Cl)c2)CC1)S(=O)(=O)c1ccc2c(c1)CCCC(=O)N2,822 s
11,CCc1nc2cc(N3CCC(C(=O)NC(C)c4cccnc4)CC3)cnc2nc1CC (centres undefined),596 s
12,CN(C1CCc2nn(C)c(=O)n2CC1)S(=O)(=O)c1ccccc1Cl (centres undefined),865 s
13,O=C(Nc1cnc(-c2ccc(Cl)cc2)nc1)c1cncc(Br)c1,1070 s
14,O=c1n(Cc2ccc(F)cc2)nc2c(S(=O)(=O)N3CCCCCC3)cccn12,956 s
15,CNC(=O)N1CCCC(c2cccc(C(=O)NCc3ccc(F)cc3F)c2)C1 (centres undefined),775 s
16,Cc1cc(C)cc(S(=O)(=O)N2CCC(c3nc(C(=O)N4CCCC4)c(C)o3)CC2)c1,1010 s
17,O=C(NCc1ccccc1C(F)(F)F)C1CCN(c2cnc3nccnc3c2)CC1,747 s
18,Cc1cc(C(=O)NCC23CCCC=C2NC(=O)CC3)n(C)n1 (centres undefined),636 s
19,O=C(Cc1ccc(F)cc1)NC1CCN(c2nnc3ccccn23)CC1,629 s

# The next lines start with the values.
row,RP-LC retention time,SMILES
1,962 s,CN(CCc1noc(COc2ccc(F)cc2)n1)C(=O)Nc1ccccc1Cl
2,784 s,O=C(NCc1ccc(F)cc1F)c1ccc(OCC(=O)C2CC2)cc1
3,784 s,CCn1cc(-c2nc(C)c(C(=O)Nc3ccc(C)cc3)s2)c2cccnc21
4,770 s,COc1cc(OC)c(OC)cc1CC1C(=O)Nc2ccccc21 (centres undefined)
5,770 s,COc1cc([C@@H]2c3cc4c(cc3[C@H](O)[C@@H](CO)[C@@H]2C(=O)NCc2ccc(OC(C)C)cc2)OCO4)cc(OC)c1OC
6,800 s,COc1ccc(-c2nc(C)cc3nn(CC(=O)Nc4cccc(OC)c4)c(=O)n23)cc1
7,1210 s,COC(=O)c1ccc2c(=O)n(-c3cc(OC)cc(OC)c3)c(N3CCC(C)CC3)nc2c1
8,734 s,Cc1cccc(CN2C[C@@H]3C(=O)N(Cc4ccc5c(c4)OCO5)C(=O)[C@@H]3C2)c1
9,962 s,COc1cc(OC)cc(C(=O)Nc2nc(-c3ccc4c(c3)NC(=O)C(C)O4)c(C)s2)c1 (centres undefined)
10,866 s,COc1ccc(OC)c(NS(=O)(=O)c2cc3c(s2)CCN(C(=O)C2CCC2)C3)c1
11,977 s,COc1ccc(OC)c(-c2ccc(=O)n(CCc3nc(-c4ccc(F)cc4)no3)n2)c1
12,646 s,CCc1cc(=O)n(CC(=O)Nc2ccc(OC)c(OC)c2)c(N2CCOCC2)n1
13,629 s,CC(C)c1cc(C(=O)NCc2ccco2)nc2cc(-c3ccccn3)nn12
14,738 s,COc1ncccc1CNC(=O)CCc1ccccc1
15,1130 s,CCn1ccc2oc(C)c(C(=O)NCc3ccc(C(C)C)cc3)c2c1=O
16,715 s,COc1cc(NC(=O)Cn2nc3c4ccc(F)cc4ncn3c2=O)cc(OC)c1
17,592 s,COc1ccc(OCc2noc(CNC(=O)Cn3cnc4ccccc43)n2)cc1
18,680 s,O=C(NCc1ccc(F)cc1)NCc1cccn1Cc1cccc(F)c1
19,951 s,CCOc1ccc(-n2ccn3cc(-c4cc(C)ccc4C)nc3c2=O)cc1
20,576 s,COc1ccc(CN2C(=O)[C@H](OC)[C@@H]2C2=CCNCC2)cc1
21,545 s,CCc1nnc2cc(N3CCN(Cc4ccc(OC(C)C)cc4)CC3)cnn12
22,672 s,CC(=O)Nc1ccc(OCC(=O)NCc2cc(F)cc(F)c2)nc1
23,935 s,Cc1ccc(CNC(=O)C2(C)CN(S(C)(=O)=O)CC(=O)N2c2ccc(C(C)C)cc2)cc1 (centres undefined)
24,727 s,Cc1ccc2c(NCc3ccc(Cl)cc3)c(-c3nc(C)no3)cnc2n1
25,1050 s,CCOC(=O)c1c(C)oc2nc(C)nc(NCCc3ccc(OC)c(OC)c3)c12
26,1060 s,COc1ccc(-c2noc(Cc3nnc(-c4ccc(Cl)cc4)o3)n2)cc1
27,951 s,CC(=O)N1c2ccc(S(=O)(=O)N3CCCCCC3)cc2CC1C(=O)NCc1ccc(Cl)cc1 (centres undefined)
28,720 s,COc1ccc(-c2nc3ccccn3c2NC(=O)c2ccc(Cl)c([N+](=O)[O-])c2)cc1
